# Assays:
# Assay type in all cases: in vivo, Japanese large-ear white rabbits
# [1] = system: rabbit platelet factor 4 (PF-4); experiment: Determination of PF-4 level in serum (ELISA) after PAF induction; details: for PF-4 level: rabbits 5.0 mg/kg once daily 7 days, serum after PAF induction, x ± s, n = 8
# Text: (§1) 128 Japanese large-ear white rabbits with a weight of (2.0±0.2) kg, half male and half female, were provided by Chongqing Medical University Experimental Animal Center [animal certification number: XCXK (Yu) 20020001]. […] ELISA kit (FOCUS, lot number: 20130301). TYXN-96 multifunctional intelligent aggregometer (Shanghai General Technique Research Institute); Scanning electron microscope […]-800 Absorbance Reader (BioTek Instruments, Inc.). 128 Japanese large-ear white rabbits were randomly assigned to 16 groups, with 8 rabbits in each group: […] All groups were administered with a clinically used route and dosage for 7 days continuously. […] The plasma was rested at 4° C. for 4 hours, and 200 μL of serum was taken for detection. The specific operation is carried out according to the kit specification, and the result was read by the Absorbance Reader.
# [2] = system: rabbit platelet aggregation induced by PAF; experiment: Platelet aggregation rate induced by PAF in platelet-rich plasma of dosed rabbits; details: for Platelet aggregation inhibition rate (%) / platelet aggregation rate, 1 min / platelet aggregation rate, 5 min / maximum platelet aggregation rate (MAX): rabbits 5.0 mg/kg once daily 7 days; for Platelet aggregation inhibition rate (%) / maximum platelet aggregation rate (MAX): PAF-induced; for Platelet aggregation inhibition rate (%): relative to saline group; for platelet aggregation rate, 1 min / platelet aggregation rate, 5 min / maximum platelet aggregation rate (MAX): PRP, x ± s, n = 8; for platelet aggregation rate, 1 min: 1 min after addition of 10 μL PAF; for platelet aggregation rate, 5 min: 5 min after addition of 10 μL PAF; for maximum platelet aggregation rate comparing with the saline group: under the induction of PAF, p<0.01, p<<0.05
# Description: 128 Japanese large-ear white rabbits with a weight of (2.0±0.2) kg, half male and half female, were provided by Chongqing Medical University Experimental Animal Center [animal certification number: XCXK (Yu) 20020001].
# Platelet activation factors (PAF) (cayman, lot number: 011219) was dissolved in the Tris-NaCl solution containing 0.25% of calf serum albumin at a pH of 7.6, to a final concentration of 3.6 nmoL/L; sodium citrate (Beijing Zhongshanjinqiao Biotechnology Company, lot number: 20130117) dissolved in the distilled water with 3.8% concentration; rabbit β-thromboglobulin (β-TG) ELISA kit (FOCUS, lot number: 20130224), rabbit platelet factor 4 (PF-4) (lot number: ELISA kit (FOCUS, lot number: 20130301). TYXN-96 multifunctional intelligent aggregometer (Shanghai General Technique Research Institute); Scanning electron microscope S-3000 N (Hitachi Limited); ELX-800 Absorbance Reader (BioTek Instruments, Inc.).
# 128 Japanese large-ear white rabbits were randomly assigned to 16 groups, with 8 rabbits in each group: (1) Saline group, (2) Ginkgolide B group, (3) Aspirin group, (4) Jinnaduo group, (5) Composition 1 group, (6) Composition 2 group, (7) Composition 3 group, (8) Composition 4 group, (9) Composition 5 group, (10) Composition 6 group, (11) Composition 7 group, (12) Composition 8 group, (13) Composition 9 group, (14) Composition 10 group, (15) Composition 11 group, (16) Composition 12 group. All groups were administered with a clinically used route and dosage for 7 days continuously.
# After 7 days of administration, 10.5 ml of blood was taken from the heart of each animal, wherein 1.5 ml of plasma was used for taking serum and the rest 9 ml of plasma was subjected to 3.8% sodium citrate at 1:9 for anticoagulation, centrifuging for 10 minutes at 800 r/min, and taking the supernatant to obtain platelet-rich plasma (PRP).), wherein 100 μl of the PRP was taken for electron microscope examination, and the rest of the PRP was used for detecting of the platelet aggregation rate; the remaining portion was centrifuged for 15 min at a speed of 3000 r/min, and platelet-depleted plasma (PPP) was obtained. PPP was used to adjust the number of platelet in PRP, to be at 360×10^9/L. The platelet aggregation rate and maximum platelet aggregation rate was studied and recorded after 1 min, 5 min of addition of 10 μL of PAF.
# The statistical analysis is carried out using SPSS 18.0 software, and the platelet aggregation rates, the percentage of types of platelet morphology and the concentration of PF-4 and β-TG were analyzed using two-sample t-test. P-values<0.05 were considered statistically significant.
# [3] = system: rabbit β-thromboglobulin (β-TG); experiment: Determination of β-TG level in serum (ELISA) after PAF induction; details: for level of β-TG compared with the saline group: p<0.01, p<0.05; for β-TG level: rabbits 5.0 mg/kg once daily 7 days, serum after PAF induction, x ± s, n = 8
# Text: as §1
# [4] = system: platelets (morphology types after PAF); experiment: Scanning electron microscopy study of platelet morphology after addition of PAF; details: for Types of morphology (%): Aggregated / Types of morphology (%): Circle / Types of morphology (%): Flat / Types of morphology (%): Tree like: rabbits 5.0 mg/kg once daily 7 days, PRP + PAF, SEM, 100 platelets, x ± s, n = 8; for Aggregated type platelets under scanning electron microscope: under induction of PAF, 2000-fold SEM
# Description: 128 Japanese large-ear white rabbits with a weight of (2.0±0.2) kg, half male and half female, were provided by Chongqing Medical University Experimental Animal Center [animal certification number: XCXK (Yu) 20020001]. 128 Japanese large-ear white rabbits were randomly assigned to 16 groups, with 8 rabbits in each group: […] All groups were administered with a clinically used route and dosage for 7 days continuously. […] The types of platelet under the electron microscope includes: […] (3) Flat type has a dense core in the center and a wide transparent peripheral zone which has a smooth periphery or small bulges. (4) Aggregated-type is usually composed of several to dozens of platelets, with different sizes of the aggregates, wherein the platelets are mutually connected, some of the platelets are integrally fused into a whole, and the foot processes of the peripheral part are prominent.
SMILES,PF-4 level [1] [µg/mL],Platelet aggregation inhibition rate (%) [2] [%],"platelet aggregation rate, 1 min [2]","platelet aggregation rate, 5 min [2]",maximum platelet aggregation rate (MAX) [2],maximum platelet aggregation rate comparing with the saline group [2],level of β-TG compared with the saline group [3],β-TG level [3] [µg/mL],Types of morphology (%): Aggregated [4] [%],Types of morphology (%): Circle [4] [%],Types of morphology (%): Flat [4] [%],Types of morphology (%): Tree like [4] [%],Aggregated type platelets under scanning electron microscope [4],"level of PF-4 compared with the saline group ([1]; p<0.01, p<0.05)"
"CC(=O)Oc1ccccc1C(=O)O [Aspirin, acetylsalicylic acid]",1.489 ± 0.228,31.53,25.28 ± 5.06,36.89 ± 5.53,48.08 ± 5.87,significant difference,didn't decrease significantly,1.504 ± 0.244,54.0 ± 14.3,5.8 ± 2.6,25.5 ± 8.4,14.7 ± 7.0,increased number of Aggregated type platelets,
CC1C(=O)OC2C(O)C34C5CC(C(C)(C)C)C36C(OC(=O)C6O)OC4(C(=O)O5)C12O (stereo not drawn) [Ginkgolide B],1.264 ± 0.215,44.66,21.36 ± 4.15,33.54 ± 5.48,38.86 ± 4.74,significant difference,decreased significantly,1.247 ± 0.184,22.3 ± 9.6,31.6 ± 6.4,46.1 ± 8.3,15.8 ± 6.8,rarely seen,decreased significantly

# — patent US10441599B2, “Pharmaceutical composition containing Ginkgolide B and blood platelet prostaglandin cyclooxygenase inhibitor and method for preparation thereof and use thereof” (priority 2014, dated 2019)
